Our source for the Activity, inhibition and Drug uptake values is ChEMBL document CHEMBL5620373, “Establishment of environment-sensitive probes targeting BRD3/BRD4 for imaging and therapy of tumor” (Eur J Med Chem, 2023).

Molecules are shown by their SMILES. Active and inactive are the calls of the source. The rule behind the calls is not given here.

In data set [1] the test system is MCF7. Nature of the data set: Induction of apoptosis in human MCF7 cells assessed as decrease in c-Myc mRNA level at 1 to 10 umol/L after 48 hrs by qRT-PCR analysis. It counts as functional, cell-based. To be noted: dose 1-10 µmol/L.
In data set [2] the test system is MCF7. As to the kind of experiment: Induction of apoptosis in human MCF7 cells assessed as decrease in c-Myc mRNA level at 1 to 10 umol/L by qRT-PCR analysis. It counts as functional, cell-based. As to conditions: dose 1-10 µmol/L, TDE = time-dependent effect.
The test system of data set [3] is MCF7. As to the kind of experiment: Induction of apoptosis in human MCF7 cells assessed as increase in AMPK mRNA level at 1 to 10 umol/L by qRT-PCR analysis. It counts as functional, cell-based. As to conditions: dose 1-10 µmol/L, TDE = time-dependent effect.
For data set [4], the system named is MCF7. Nature of the data set: Induction of apoptosis in human MCF7 cells assessed as increase in Bcl-2 mRNA level at 1 to 10 umol/L after 48 hrs by qRT-PCR analysis. It counts as functional, cell-based. To be noted: dose 1-10 µmol/L. (Quantitative PCR measures a nucleic acid by following its amplification.)
Data set [5] deals with MCF7. As to the kind of experiment: Induction of apoptosis in human MCF7 cells assessed as increase in AMPK mRNA level after 48 hrs by qRT-PCR analysis. To be noted: dose 1-10 µmol/L. It counts as functional, cell-based.
Data set [6] has as its system MCF7. Nature of the data set: Induction of apoptosis in human MCF7 cells assessed as increase in AMPK mRNA level at 1 to 10 umol/L after 48 hrs by qRT-PCR analysis. It counts as functional, cell-based. To be noted: dose 1-10 µmol/L.
Data set [7] concerns MCF7. As to the kind of experiment: Induction of apoptosis in human MCF7 cells assessed as increase in early apoptotic cells after 48 hrs by flow cytometry analysis. The class given is functional, cell-based.
In data set [8] the test system is MCF7. As to the kind of experiment: Inhibition of cell migration in human MCF7 cells assessed as reduction in wound healing at 10 umol/L measured upto 72 hrs by scratch assay. It counts as functional. To be noted: MCF7, 72 h, dose 10 µmol/L.
In data set [9] the test system is MCF7. Nature of the data set: Inhibition of cell migration in human MCF7 cells assessed as reduction in wound healing at 1 umol/L measured upto 72 hrs by scratch assay. The class given is functional, cell-based. As to conditions: dose 1.0 µmol/L.
Data set [10] has as its system MCF7. Nature of the data set: Induction of apoptosis in human MCF7 cells assessed as decrease in c-Myc mRNA level after 48 hrs by qRT-PCR analysis. To be noted: dose 1-10 µmol/L. It counts as functional, cell-based.
Data set [11] deals with MCF7. Nature of the data set: Induction of apoptosis in human MCF7 cells assessed as increase in Bcl-2 mRNA level after 48 hrs by qRT-PCR analysis. The class given is functional, cell-based. To be noted: dose 1-10 µmol/L.
Data set [12] deals with MCF7. Nature of the data set: Induction of apoptosis in human MCF7 cells assessed as increase in Bcl-2 mRNA level at 1 to 10 umol/L by qRT-PCR analysis. The class given is functional, cell-based. To be noted: dose 1-10 µmol/L, TDE = time-dependent effect.
Data set [13] concerns the target Bromodomain-containing protein 4 (Homo sapiens) (UniProt O60885). As to the kind of experiment: Binding affinity to recombinant BRD4 (unknown origin) in PBS at pH 7.4 assessed as increase in fluorescence intensity measured after 30 mins by TR-FRET assay. To be noted: dose 0.4-3.1 µg/ml.
Data set [14] in a line: Drug uptake in BRD4 silenced fixed human MCF7 cells nucleus assessed as fluorescence intensity at 15 umol/L by acridine orange dye based analysis. It counts as ADME, cell-based. As to conditions: mcf7, 15 µM, dose 15 µmol/L.
Data set [15] can be described thus: Drug uptake in BRD3 silenced fixed human MCF7 cells nucleus assessed as fluorescence intensity at 15 umol/L by acridine orange dye based analysis. It counts as ADME, cell-based. To be noted: mcf7, 15 µM, dose 15 µmol/L.
The nature of data set [16]: Drug uptake in BRD4 silenced human MCF7 cells nucleus assessed as fluorescence intensity at 15 umol/L by acridine orange dye based analysis. It counts as ADME, cell-based. To be noted: mcf7, 15 µM, dose 15 µmol/L.
The test system of data set [17] is MCF7. Nature of the data set: Antiproliferative activity against human MCF7 cells assessed as reduction in cell viability by MTT assay. It counts as functional, cell-based.
The nature of data set [18]: Drug uptake in human MCF7 cells assessed as fluorescence emission by fluorescence microscopic analysis. It counts as ADME, cell-based.
Data set [19] can be described thus: Drug uptake in human MCF7 cells xenografted mouse tumor tissue assessed as fluorescence intensity at 15 umol/L by acridine orange dye based fluorescence microscopic assay. The class given is ADME, cell-based. As to conditions: in vivo, 15 µM, dose 15 µmol/L. (In general: A xenograft is tissue or cells of one species grown in another, often human tumour cells in immunodeficient mice.)

Data set [20] can be described thus: Drug uptake in human MCF7 cells xenografted nude mouse tumor tissue assessed as fluorescence intensity at 15 umol/L in presence of JQ1(+) by acridine orange dye based fluorescence microscopic assay. It counts as ADME, Neoplasm. To be noted: in vivo, 15 µM, dose 15 µmol/L.
A short description of data set [21]: Drug uptake in human MCF7 cells nucleus assessed as fluorescence intensity at 15 umol/L in presence of JQ1(+) by acridine orange dye based analysis. The class given is ADME, cell-based. As to conditions: mcf7, 15 µM, dose 15 µmol/L.
Data set [22] is described as follows: Drug uptake in HEK293 cells assessed as fluorescence emission by fluorescence microscopic analysis. It counts as ADME, cell-based. To be noted: human.
Data set [23] concerns the target Bromodomain-containing protein 3 (Homo sapiens) (UniProt Q15059). Nature of the data set: Binding affinity to recombinant BRD3 (unknown origin) in PBS at pH 7.4 assessed as increase in fluorescence intensity at […] in presence of JQ1(+) by TR-FRET assay. As to conditions: time 30.0 min. A general note: In TR-FRET formats the signal depends on donor and acceptor labels being close together.

A short description of data set [24]: Drug uptake in fixed human MCF7 cells nucleus assessed as fluorescence intensity in presence of BRD4 antibody by acridine orange dye based analysis. It counts as ADME, cell-based.
The nature of data set [25]: Drug uptake in human MCF7 cells xenografted nude mouse tumor tissue in presence of BRD3 antibody by immunofluorescence analysis. The class given is ADME, Neoplasm. To be noted: in vivo.
The target in data set [26] is Bromodomain-containing protein 3 (Homo sapiens) (UniProt Q15059). As to the kind of experiment: Binding affinity to recombinant BRD3 (unknown origin) in PBS at pH 7.4 assessed as increase in fluorescence intensity measured after 30 mins by TR-FRET assay. To be noted: dose 15.0 µmol/L.
Bromodomain-containing protein 3 (Homo sapiens), sequence (Q15059 2-726 limits assumed): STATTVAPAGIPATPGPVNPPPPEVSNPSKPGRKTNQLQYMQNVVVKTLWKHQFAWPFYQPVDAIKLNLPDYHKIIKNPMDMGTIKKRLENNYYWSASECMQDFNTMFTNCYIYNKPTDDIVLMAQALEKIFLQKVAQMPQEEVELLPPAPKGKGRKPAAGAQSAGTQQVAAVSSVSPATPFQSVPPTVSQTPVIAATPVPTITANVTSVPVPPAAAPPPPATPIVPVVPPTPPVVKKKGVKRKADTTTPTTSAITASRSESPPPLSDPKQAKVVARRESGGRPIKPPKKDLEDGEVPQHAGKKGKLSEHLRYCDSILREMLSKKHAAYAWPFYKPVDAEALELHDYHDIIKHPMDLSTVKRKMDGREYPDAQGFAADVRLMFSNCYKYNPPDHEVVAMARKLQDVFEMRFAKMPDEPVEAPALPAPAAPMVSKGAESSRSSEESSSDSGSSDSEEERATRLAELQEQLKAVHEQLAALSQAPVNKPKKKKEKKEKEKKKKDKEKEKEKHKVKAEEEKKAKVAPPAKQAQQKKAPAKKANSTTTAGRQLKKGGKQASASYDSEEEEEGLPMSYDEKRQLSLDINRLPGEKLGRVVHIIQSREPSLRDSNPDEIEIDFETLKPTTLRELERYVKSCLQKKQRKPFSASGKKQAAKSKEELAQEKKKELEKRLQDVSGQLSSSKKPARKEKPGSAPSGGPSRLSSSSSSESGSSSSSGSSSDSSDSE
Data set [27] in a line: Drug uptake in human MCF7 cells xenografted nude mouse tumor tissue in presence of BRD4 antibody by immunofluorescence analysis. To be noted: in vivo. It counts as ADME, Neoplasm.
For data set [28], the target named is Bromodomain-containing protein 4 (Homo sapiens) (UniProt O60885). As to the kind of experiment: Binding affinity to recombinant BRD4 (unknown origin) in PBS at pH 7.4 assessed as increase in fluorescence intensity at […] in presence of JQ1(+) by TR-FRET assay. As to conditions: time 30.0 min.
Data set [29] is described as follows: Drug uptake in human MCF7 cells nucleus assessed as fluorescence intensity at 15 umol/L by acridine orange dye based analysis. It counts as ADME, cell-based. To be noted: mcf7, 15 µM, dose 15 µmol/L.
Data set [30] in a line: Fluorescent property of compound in PBS at pH 7.4 assessed as excitation wavelength by microplate reader analysis. The class given is physicochemical. To be noted: buffer.
Data set [31] is described as follows: Drug uptake in fixed human MCF7 cells nucleus assessed as fluorescence intensity in presence of BRD3 antibody by acridine orange dye based analysis. It counts as ADME, cell-based.
A short description of data set [32]: Drug uptake in BRD3 silenced human MCF7 cells nucleus assessed as fluorescence intensity at 15 umol/L by acridine orange dye based analysis. It counts as ADME, cell-based. To be noted: mcf7, 15 µM, dose 15 µmol/L.
Data set [33] is described as follows: Fluorescent property of compound in PBS at pH 7.4 assessed as emission wavelength by microplate reader analysis. To be noted: buffer. The class given is physicochemical.

As for `Cc1sc2c(c1C)C(c1ccc(Cl)cc1)=N[C@@H](CC(=O)OC(C)(C)C)c1nnc(C)n1-2`, the outcome with MCF7 [1], in the data set on MCF7 [4], in the data set on MCF7 [6] and with MCF7 [7] was Active. Besides, the Activity entry was “Tde” in the data set on MCF7 [2]; “Tde” in the data set on MCF7 [3]; “Dose-Dependent Effect” in the data set with MCF7 [5]; “Dose-Dependent Effect” in the data set with MCF7 [10]; “Dose-Dependent Effect” in the data set with MCF7 [11]; “Tde” in the data set with MCF7 [12]. Also, the inhibition – broadly, the drop in the measured response relative to a control, in per cent – at 10 µM with MCF7 [8] turned out to be 100%. The inhibition result with MCF7 [9] is “Active”.
Take `Cc1sc2c(c1C)C(c1ccc(Cl)cc1)=N[C@@H](CC(=O)NCCCNS(=O)(=O)c1cccc3c(N(C)C)cccc13)c1nnc(C)n1-2`: the Activity result was “Dose-Dependent Effect” in data set [13]; “Tde” with MCF7 [2]; “Tde” with MCF7 [3]; “Dose-Dependent Effect” in the data set on MCF7 [5]; “Dose-Dependent Effect” in [26]; 350 nm in data set [30]. The Activity entry in the data set on MCF7 [10] is “Dose-Dependent Effect”; in [33], 495 nm; in the data set on MCF7 [11] it was “Dose-Dependent Effect”; in the data set on MCF7 [12], “Tde”. Moreover, the Drug uptake result in data set [14] is listed as “Active”; in data set [15], “Active”; in data set [16] it was “Active”; in data set [18] it was “Active”; in data set [19] it was “Active”; in [20] it was “Not Active”. Also, the Drug uptake entry was “Not Active” in data set [21]; “Not Active” in data set [22]; “Active” in [24]; “Active” in data set [25]; “Active” in [27]; “Active” in data set [29]. Besides, the Drug uptake entry in data set [31] and in [32] was “Active” each time. The result in the data set on MCF7 [1], in the data set on MCF7 [17], in the data set on MCF7 [4], in the data set on MCF7 [6] and with MCF7 [7] was Active. For the same compound, the result in [23] and in data set [28] was inactive. Moreover, the inhibition at 10 µM in the data set with MCF7 [8] stood at 100%. Moreover, in the data set on MCF7 [9], the inhibition result was “Active”.
Take `Cc1sc2c(c1C)C(c1ccc(Cl)cc1)=N[C@@H](CC(=O)NCCCCNS(=O)(=O)c1cccc3c(N(C)C)cccc13)c1nnc(C)n1-2`: the Drug uptake result is “Active” in data set [18] and “Not Active” in [22]. Further, the Activity in [30] was determined as 350 nm; in [33], 495 nm.
For `Cc1sc2c(c1C)C(c1ccc(Cl)cc1)=N[C@@H](CC(=O)NCCCCCNS(=O)(=O)c1cccc3c(N(C)C)cccc13)c1nnc(C)n1-2`, in that order: “Active”, “Not Active”, 350 nm and 495 nm.
